Experimental data as given in publication PMC6389498, “Control of Bacterial Virulence through the Peptide Signature of the Habitat” (Cell Reports, 2019).
Converted amounts (≈) assume the structure as drawn. Where two headings read alike, the source gives them in different places. Residues, ends and D or L forms follow the SMILES beside them.

Key:
[1] = system: PrfA-dependent expression (PrfA-regulated hly promoter, luxABCDE reporter); test: Phly-lux reporter of PrfA-dependent gene expression, wild-type P14; type: cell-based, Listeria monocytogenes; details: for PrfA downregulation (repression of Phly-lux expression): wild-type P14 in regular CDM (0.8 mM Cys), 1 mM peptide vs no-peptide control, 37°C, maximum normalized luminescence, means of three triplicate experiments
Experimental: (§1) Listeria were routinely grown in porcine BHI (BD-Difco) and Escherichia coli in Luria-Bertani (LB) media, with 1% agar for solid cultures. For adsorbent-treated BHI agar, 1% (w/v) Amberlite XAD4 resin (Sigma-Aldrich) or 0.5% (w/v) activated charcoal powder (Merck) was added to the medium prior to autoclaving. For fluid Amberlite XAD4-treated BHI cultures (BHI-Amb), the resin was aseptically removed after autoclaving to avoid interference with optical density (OD) readings. Chemically defined CDM is a modification of the improved minimal medium (IMM) of [Phan-Thanh and Gormon (1997)], with the following composition: 6.56 g/L […], 30.96 g/L NaHPO4 7H2O, 0.41 g/L MgSO4, 88 mg/L ferric citrate, 0.1 g/L each of the (L-) amino acids leucine, isoleucine, valine, methionine, arginine, cysteine, histidine and tryptophan, 0.6 g/L L-glutamine, 2.5 mg/L adenine, 0.5 mg/L biotin, 5 mg/L riboflavin, 1 mg/L each of thiamine, pyridoxal, para-aminobenzoic acid, calcium panthothenate and nicotinamide, 5 μg/L thioctic acid and 4.5 g/L glucose. CDM was used freshly prepared from filter-sterilized stock solutions stored at 4°C (except cysteine, glutamine, biotin and ferric citrate solutions, kept at –20°C; and phosphates, MgSO4 and glucose, at room temperature). Antibiotic supplements (μg/mL) were as follows (lower values for Listeria, others for E. coli or both): erythromycin 5 or 250, chloramphenicol 7.5 or 20, spectinomycin 100, carbenicillin 100. All incubations were carried out at 37°C, with 180 rpm orbital shaking for fluid cultures, unless stated otherwise. GSH was kept in reduced state with 2 mM Tris[2-carboxyethyl]phosphine hydrochloride (TCEP) in the stock solution. Chemicals and oligonucleotides were from Sigma-Aldrich unless otherwise indicated.
(§2) PrfA-dependent gene expression was quantitatively analyzed throughout the L. monocytogenes growth curve using a chromosomally integrated luxABCDE operon under the control of the PrfA-regulated hly promoter ([Bron et al., 2006]). Overnight bacterial cultures were washed, resuspended in PBS and used to inoculate fresh medium to an initial OD at 600 nm (OD600) ≈0.02-0.05. Triplicate 200-μl aliquots were transferred to opaque 96-well plates with clear bottom (ThermoScientific) and OD600 and luminescence readings taken every 30 min during incubation in an automated microplate reader (FLUOstar Omega, BMG Labtech). Bioluminescence values were normalized to growth at each time point. RT-qPCR transcription analysis was performed on total RNA samples extracted from mid-exponential L. monocytogenes cultures (OD600 ≈0.2-0.3 for BHI media) using RNeasy mini kit (QIAGEN) as previously described ([Deshayes et al., 2012]). The number of transcripts was calculated by interpolation of threshold cycle (CT) values of cDNA amplifications in a standard regression curve generated from samples of known DNA concentration. Expession data were normalized by dividing the number of transcripts of the test gene by the geometric mean of the number of transcripts of the reference housekeeping genes rpoB and ldh ([Deshayes et al., 2012]). See Table S3 for oligonucleotides used.

[2] = system: PrfA-dependent expression (PrfA-regulated hly promoter, luxABCDE reporter); test: Phly-lux reporter of PrfA-dependent gene expression, opp (oppF::Tn) or ΔgshF mutant; type: cell-based, Listeria monocytogenes; details: for Rescue of PrfA phenotype of opp mutant: opp mutant in BHI-Amb, GSH 1 mM, L-cysteine at the CDM concentration
Experimental: as §1
as §2, with “RT-qPCR transcription analysis was performed on total RNA samples extracted from mid-exponential L. monocytogenes cultures (OD600 ≈0.2-0.3 for BHI media) using RNeasy mini kit (QIAGEN) as previously described ([Deshayes et al., 2012]).” left out, “Expession data were normalized by dividing the number of transcripts of the test gene by the geometric mean of the number of transcripts of the reference housekeeping genes rpoB and ldh ([Deshayes et al., 2012]). See Table S3 for oligonucleotides used.” left out

L. monocytogenes P14 [3] = type: cell-based, Listeria monocytogenes
PrfA [4] = target: T1, PrfA (Listeria monocytogenes serovar 1/2a, UniProt P22262); details: read-out: Kd for PrfA; ref Reniere et al., 2015; cited from earlier work
T1 sequence (P22262 whole entry): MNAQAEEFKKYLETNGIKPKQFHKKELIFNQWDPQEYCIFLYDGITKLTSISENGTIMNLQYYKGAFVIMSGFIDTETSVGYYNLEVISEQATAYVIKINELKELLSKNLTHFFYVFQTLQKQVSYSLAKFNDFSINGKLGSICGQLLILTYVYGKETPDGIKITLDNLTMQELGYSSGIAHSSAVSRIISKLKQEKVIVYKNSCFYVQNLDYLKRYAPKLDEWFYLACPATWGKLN

PrfA [5] = target: T1, PrfA; test: biochemical; type: binding; set-up: His tag (inferred from pET28a vector and nickel-column purification); made in house; host or cells: E. coli BL21; details: for Binding to PrfA detected by ITC: ITC with purified PrfA, free L-Leu at 1 mM
L. monocytogenes P14 [6] = test: Fosfomycin MIC; type: cell-based; details: Listeria monocytogenes
[7] = target: T2, PrfA^WT binding to the PplcA/hly PrfA box (Listeria monocytogenes serovar 1/2a, UniProt P22262); test: Biolayer interferometry of PrfA-DNA binding, PrfAWT; type: biochemical; details: BLI, PrfA^WT-ligand mixes at 1:100 molar ratio, 50 mM Tris-Cl pH 7.5, 300 mM NaCl, 0.05 Tween 20; at least two experiments
T2 construct: His tag (inferred from pET28a vector and nickel-column purification); made in house; host or cells: E. coli BL21
T2 sequence (P22262 whole entry): as above
Experimental: Bacterial pellets of IPTG-induced cultures of E. coli BL21(pET28aprfA^WT) ([Deshayes et al., 2012]; Table S2) were resuspended in lysis buffer (50 mM Tris pH 7.5, 300 mM NaCl, 20 mM imidazole) and lysed with an EmulsiFlex homogenizer. After affinity chromatography on a HiTrap HP nickel column in an AKTA system (GE Healthcare), PrfA-containing fractions were pooled together, loaded on a HiTrap Heparin HP column and then on a Superdex 75 Gel Filtration column to remove nucleic acid and protein contaminants. The buffer used for the gel filtration and storage was 50 mM Tris pH 7.5, 300 mM NaCl. Fluorescence-based thermal shift assays were performed in a real-time PCR instrument (Bio-Rad) using 25 μL triplicate samples containing 10 μΜ recombinant PrfA, 5 × SyprOrange (Invitrogen) and 1 mM synthetic peptide. Isothermal Titration Calorimetry (ITC) experiments were performed in a GE MicroCal iTC200 system (GE Healthcare). PrfA was changed to 50 mM Tris pH 7.5, 500 mM NaCl buffer and 100 μΜ of PrfA protein injected into the cell. […] Data were analyzed with the inbuilt software of the ITC apparatus using a one-site model. The specific DNA-binding activity of PrfA was measured by biolayer interferometry (BLI) with a FortéBio Octet^RED 96 apparatus using a biotinylated double-stranded oligonucleotide containing the PplcA/hly PrfA box (Table S3). […]

PrfA [8] = target: T1, PrfA; type: binding; set-up: His tag (inferred from pET28a vector and nickel-column purification); made in house; host or cells: E. coli BL21

N[C@@H](CS)C(=O)O [Cys, L-cysteine]
Amount required to completely cancel LL/LLL-mediated repression ([1]; wild-type in CDM with limiting Cys (0.1 mM), against fixed 0.25 mM Leu peptide): 6.4 mM | Rescue of PrfA phenotype of opp mutant [2]: Rescue of opp mutant | Minimum concentration for eugonic growth (L. monocytogenes P14 [3]; CDM, wild-type and opp bacteria): ≈ 0.2 mM | Concentrations that inhibit P14 growth (L. monocytogenes P14 [3]; Cys-deplete CDM supplemented with increasing free Cys): ≥ 12800 µM

N[C@@H](CCC(=O)N[C@@H](CS)C(=O)NCC(=O)O)C(=O)O [GSH, γ-L-Glutamyl-L-cysteinylglycine]
Rescue of PrfA phenotype of opp mutant [2]: fully restored the parental PrfA^+ phenotype | Reversal of PrfA– phenotype of ΔgshF mutant ([2]; ΔgshF in BHI-Amb, 1 mM exogenous GSH (even at 8 mM, data not shown)): did not revert the PrfA^– phenotype | Kd (PrfA [4]): ~4000 µM | Binding to PrfA detected by ITC (PrfA [5]): undetectable by ITC

CC(C)C[C@H](NC(=O)[C@@H](N)CC(C)C)C(=O)O [LL, L-leucylleucine]
Kd (PrfA [5]): ~25 µM

CC(C)C[C@H](NC(=O)[C@H](CC(C)C)NC(=O)[C@@H](N)CC(C)C)C(=O)O [LLL] (H-Leu-Leu-Leu-OH)
Kd (PrfA [5]): ~25 µM

C[C@@H]1O[C@@H]1P(=O)(O)O [fosfomycin]
MIC (L. monocytogenes P14 [6]): 12 to 32 µg/mL (≈ 86.9 to 232 µM)

CC(C)C[C@H](N)C(=O)O [free Leu, leucine]
PrfA downregulation (repression of Phly-lux expression) [1]: not inhibitory | Inhibition of PrfA-DNA binding [7]: not | Binding to PrfA detected by ITC (PrfA [5]): no binding was detected

ASSLLLVG [listerial derived octapeptide, putative peptide pheromone pPplA]
PrfA downregulation (repression of Phly-lux expression) [1]: 88% | Change in melting temperature (Tm) of purified PrfA (PrfA [8]): significant drop in the Tm

KLLLLK [known listerial Opp substrate]
PrfA downregulation (repression of Phly-lux expression) [1]: 96%

RGDC [Cys-containing synthetic tetrapeptide transported by Opp]
Concentration that completely cancelled LL/LLL-mediated repression ([1]; wild-type in CDM with limiting Cys (0.1 mM), against fixed 0.25 mM LL or LLL): 80 µM | Growth and PrfA-dependent expression with peptide as Cys source ([1]; wild-type, CDM without Cys supplemented with 0.32 mM RGDC peptide): promoted growth and PrfA-dependent expression | Growth and PrfA-dependent expression with peptide as Cys source ([2]; opp mutant, CDM without Cys supplemented with 0.32 mM RGDC peptide): not

RKDVY [known listerial Opp substrate]
PrfA downregulation (repression of Phly-lux expression) [1]: no effect

SQNPYPIV [known listerial Opp substrate]
PrfA downregulation (repression of Phly-lux expression) [1]: 59%
